We go through 9 compounds from patent US8449898B2 (priority 2007, dated 2013).

Like-named read-outs stand apart in the source and are kept apart here.

Data set [1] relates to Phytophthora infestans (the causal agent of tomato late blight). Kind of data set: whole plant or invertebrate. The data set is classed as in vivo. As to conditions: for TLB Obsd: component (b) alone; for TLB Obsd (disease control rating): Table B.
The subject of data set [2] is Pseudoperonospora cubensis (the causal agent of cucumber downy mildew). Kind of data set: Test B: cucumber downy mildew, preventive spray on cucumber seedlings. The data set is classed as in vivo. Conditions: for CDM Obsd (disease control rating): Table B.
Where [3] appears, read: Phytophthora infestans, read-out: TLB Obsd, component (b) alone, 2 ppm.
Where [4] appears, read: Phytophthora infestans, read-out: TLB Obsd, component (b) alone, 10 ppm.
Where [5] appears, read: Phytophthora infestans, read-out: TLB Obsd, component (b) alone, 40 ppm.
The mark [6] stands for this setting: Phytophthora infestans, read-out: TLB Obsd, component (b) alone, 200 ppm.
The mark [7] stands for this setting: Pseudoperonospora cubensis, component (b) alone, 2 ppm, read-out: CDM Obsd.
Where [8] appears, read: Pseudoperonospora cubensis, component (b) alone, 10 ppm, read-out: CDM Obsd.
The mark [9] stands for this setting: Pseudoperonospora cubensis, component (b) alone, 40 ppm, read-out: CDM Obsd.
The mark [10] stands for this setting: Pseudoperonospora cubensis, component (b) alone, 200 ppm, read-out: CDM Obsd.
[11] abbreviates: component (b) alone 0.08 ppm (Compound 1 0 ppm).
[12] abbreviates: component (b) alone 0.4 ppm (Compound 1 0 ppm).
[13] abbreviates: component (b) alone 2 ppm (Compound 1 0 ppm).
Where [14] appears, read: component (b) alone 10 ppm (Compound 1 0 ppm).

As usually defined, the melting point is the temperature of the solid-liquid transition. Turning to `Cc1cc(C(F)(F)F)nn1CC(=O)N1CCC(c2nc(C3=NOC(C)(c4ccccc4)C3)cs2)CC1` (stereo not drawn), the melting point was 97 to 100 °C.

`Cc1cc(C(F)(F)F)nn1CC(=O)N1CCC(c2nc(C3=NOC4c5ccccc5CCC34)cs2)CC1` (stereo not drawn) returned a melting point of 162 to 165 °C.

In the case of `COc1ccc(C2CC(c3csc(C4CCN(C(=O)Cn5nc(C(F)(F)F)cc5C)CC4)n3)=NO2)cc1` (stereo not drawn), the melting point was 119 to 124 °C.

On to `CCc1cc(C(F)(F)F)nn1CC(=O)N1CCC(c2nc(C3=NOC(c4ccccc4)C3)cs2)CC1` (stereo not drawn), for which the melting point was 128 to 133 °C.

In the case of `O=C(Cn1nc(C(F)(F)F)cc1C(F)(F)F)N1CCC(c2nc(C3=NOC(c4ccccc4)C3)cs2)CC1` (stereo not drawn), the melting point is 130 to 133 °C.

In the case of `Fc1ccc(Oc2ccnc3cc(Cl)cc(Cl)c23)cc1` [quinoxyfen], the pest or weed control at 0.016 ppm in data set [1] (Phytophthora infestans, read-out: TLB Obsd, Table E, component (b) alone at 0.016 ppm) stood at 9%; in data set [2] (Pseudoperonospora cubensis, Table F, component (b) alone at 0.016 ppm, read-out: CDM Obsd), 26%. Also, the pest or weed control at 0.08 ppm in data set [1] (Phytophthora infestans, read-out: TLB Obsd, Table E, component (b) alone at 0.08 ppm) was found to be 24%; in data set [2] (Pseudoperonospora cubensis, Table F, component (b) alone at 0.08 ppm, read-out: CDM Obsd) it was 26%. Moreover, the pest or weed control at 0.4 ppm in data set [1] (Phytophthora infestans, read-out: TLB Obsd, Table E, component (b) alone at 0.4 ppm) came to 26%; in data set [1] (Phytophthora infestans, read-out: TLB Obsd, component (b) alone, 0.4 ppm), 0%; in data set [2] (Pseudoperonospora cubensis, Table F, component (b) alone at 0.4 ppm, read-out: CDM Obsd), 26%; in data set [2] (Pseudoperonospora cubensis, component (b) alone, 0.4 ppm, read-out: CDM Obsd), 0%. Also, the pest or weed control at 2 ppm in data set [1] (Phytophthora infestans, read-out: TLB Obsd, Table E, component (b) alone at 2 ppm) was found to be 9%; in data set [1] (setting [3]) it was 7%; in data set [2] (Pseudoperonospora cubensis, Table F, component (b) alone at 2 ppm, read-out: CDM Obsd), 26%; in data set [2] (setting [7]) it was 0%. The pest or weed control at 10 ppm in data set [1] (Phytophthora infestans, read-out: TLB Obsd, Table E, component (b) alone at 10 ppm) was 9%; in data set [1] (setting [4]) it was 7%; in data set [2] (Pseudoperonospora cubensis, Table F, component (b) alone at 10 ppm, read-out: CDM Obsd), 26%; in data set [2] (setting [8]), 0%. Moreover, the pest or weed control at 40 ppm in data set [1] (setting [5]) and in data set [2] (setting [9]) was 0% each time. Besides, the pest or weed control at 200 ppm in data set [1] (setting [6]) and in data set [2] (setting [10]) was 0% in each case.

Regarding `CON=C(C(=O)OC)c1ccccc1CON=C(C)c1cccc(C(F)(F)F)c1` [trifloxystrobin], the pest or weed control at 0.4 ppm was found to be 0% in data set [1] (Phytophthora infestans, read-out: TLB Obsd (disease control rating), Table C, component (b) alone 0.4 ppm) and 47% in data set [2] (Pseudoperonospora cubensis, Table C, component (b) alone 0.4 ppm, read-out: CDM Obsd (disease control rating)). The pest or weed control at 2 ppm in data set [1] (Phytophthora infestans, read-out: TLB Obsd (disease control rating), Table C, component (b) alone 2 ppm) was found to be 40%; in data set [1] (setting [3]), 0%; in data set [2] (Pseudoperonospora cubensis, Table C, component (b) alone 2 ppm, read-out: CDM Obsd (disease control rating)), 47%; in data set [2] (setting [7]), 0%. For the same compound, the pest or weed control at 10 ppm in data set [1] (Phytophthora infestans, read-out: TLB Obsd (disease control rating), Table C, component (b) alone 10 ppm) amounted to 26%; in data set [1] (setting [4]) it was 72%; in data set [2] (Pseudoperonospora cubensis, Table C, component (b) alone 10 ppm, read-out: CDM Obsd (disease control rating)), 58%; in data set [2] (setting [8]), 16%. For the same compound, the pest or weed control at 40 ppm is 45% in data set [1] (Phytophthora infestans, read-out: TLB Obsd (disease control rating), Table C, component (b) alone 40 ppm); 38% in data set [1] (setting [5]); 94% in data set [2] (Pseudoperonospora cubensis, Table C, component (b) alone 40 ppm, read-out: CDM Obsd (disease control rating)); 89% in data set [2] (setting [9]). Besides, the pest or weed control at 200 ppm in data set [1] (Phytophthora infestans, read-out: TLB Obsd (disease control rating), Table C, component (b) alone 200 ppm) came out at 53%; in data set [1] (setting [6]), 25%; in data set [2] (Pseudoperonospora cubensis, Table C, component (b) alone 200 ppm, read-out: CDM Obsd (disease control rating)), 100%; in data set [2] (setting [10]), 100%. Besides, the pest or weed control at 0.04 ppm is 0% in data set [1] (Phytophthora infestans, read-out: TLB Obsd, component (b) alone, 0.04 ppm) and 0% in data set [2] (Pseudoperonospora cubensis, component (b) alone, 0.04 ppm, read-out: CDM Obsd). Further, the pest or weed control at 0.4 µg/mL in data set [2] (Pseudoperonospora cubensis, component (b) alone 0.4 ppm (Compound 1 0 ppm), read-out: CDM Obsd) was found to be 47%. Besides, in data set [2] (Pseudoperonospora cubensis, component (b) alone 2 ppm (Compound 1 0 ppm), read-out: CDM Obsd), the pest or weed control at 2 µg/mL was 47%. Besides, the pest or weed control at 10 µg/mL in data set [2] (Pseudoperonospora cubensis, component (b) alone 10 ppm (Compound 1 0 ppm), read-out: CDM Obsd) is 57%. The pest or weed control at 40 µg/mL in data set [2] (Pseudoperonospora cubensis, component (b) alone 40 ppm (Compound 1 0 ppm), read-out: CDM Obsd) came out at 93%. For the same compound, the pest or weed control at 200 µg/mL in data set [2] (Pseudoperonospora cubensis, component (b) alone 200 ppm (Compound 1 0 ppm), read-out: CDM Obsd) worked out at 100%.

Take `COC(=O)CC(NC(=O)[C@@H](NC(=O)OC(C)C)C(C)C)c1ccc(Cl)cc1` (stereo partly drawn) [valiphenal]: the “TLB Obsd” value in data set [1] (0.016 ppm) came to 8%; in data set [1] (0.08 ppm), 8%; in data set [1] (0.4 ppm), 8%; in data set [1] (2 ppm), 32%; in data set [1] (10 ppm) it was 99%. Besides, the “CDM Obsd” value was determined as 65% in data set [2] (component (b) alone 0.016 ppm (Compound 1 0 ppm)); 47% in data set [2] (setting [11]); 47% in data set [2] (setting [12]); 47% in data set [2] (setting [13]); 57% in data set [2] (setting [14]); 31% in data set [2] (component (b) alone, 0.016 ppm). Also, the “CDM Obsd” value in data set [2] (component (b) alone, 0.08 ppm) is on record as 16%; in data set [2] (component (b) alone, 0.4 ppm), 16%; in data set [2] (component (b) alone, 2 ppm), 53%; in data set [2] (component (b) alone, 10 ppm), 100%.

With benthiovalicarb, the “TLB Obsd (disease control rating)” value in data set [1] (component (b) alone 0.4 ppm) amounted to 53%; in data set [1] (component (b) alone 2 ppm) it was 100%; in data set [1] (component (b) alone 10 ppm) it was 100%; in data set [1] (component (b) alone 40 ppm), 100%. Moreover, the “CDM Obsd (disease control rating)” value worked out at 90% in data set [2] (component (b) alone 0.4 ppm), 100% in data set [2] (component (b) alone 2 ppm), 100% in data set [2] (component (b) alone 10 ppm) and 100% in data set [2] (component (b) alone 40 ppm). In addition, the “CDM Obsd” value in data set [2] (setting [11]) was determined as 33%; in data set [2] (setting [12]), 86%; in data set [2] (setting [13]), 100%; in data set [2] (setting [14]) it was 100%; in data set [2] (component (b) alone 40 ppm (Compound 1 0 ppm)), 100%.
